Laboratory results: publication PMC2992995, “Characterization and Online Detection of Surfactin Isomers Based on HPLC-MS^n Analyses and Their Inhibitory Effects on the Overproduction of Nitric Oxide and the Release of TNF-α and IL-6 in LPS-Induced Macrophages” (Marine Drugs, 2010)
pIC50: −log10 of the molar value.

What was measured:
Format in all cases: cell-based, murine
[1] = tested on: TNF-α production induced by LPS in RAW264.7 cells; assay: Inhibition of TNF-α release induced by LPS (ELISA); conditions: LPS 1 μg/mL, 6 h, samples 1–30 μM, mouse TNF-α ELISA of culture supernatant, means of four experiments
Description: (§1) RAW264.7 cells were incubated in RPMI 1640 medium supplemented with penicillin (100 U/mL), streptomycin (100 μg/mL) and 10% heat inactivated fetal bovine serum at 37 °C in a humidified incubator with 5% CO2.
[…] 100 μL of the culture supernatant was taken out to determine the level of TNF-α and IL-6 using respective enzyme-linked immunosorbent assay kit according to the manufacturer’s recommendations. Hydrocortisone was used as positive control.

[2] = tested on: IL-6 production induced by LPS in RAW264.7 cells; assay: Inhibition of IL-6 release induced by LPS (ELISA); conditions: LPS 1 μg/mL, 6 h, samples 1–30 μM, mouse IL-6 ELISA of culture supernatant, means of four experiments
Description: as §1
Cells were treated by LPS (1 μg/mL) with or without samples (1–9, 1–30 μM) for 6 h. 100 μL of the culture supernatant was taken out to determine the level of TNF-α and IL-6 using respective enzyme-linked immunosorbent assay kit according to the manufacturer’s recommendations. Hydrocortisone was used as positive control.

[3] = tested on: NO production induced by LPS in RAW264.7 cells; assay: Inhibition of NO production induced by LPS (Griess nitrite assay); conditions: Mus musculus, LPS 1 μg/mL, 24 h, samples 1–30 μM, Griess reagent, means of four experiments
Description: as §1
Nitric oxide was determined by measuring the amount of nitrite in the cell culture supernatant, using Griess reagent (mixture of equal volume of reagent A and reagent B, (A): 1% sulphanilamide; (B): 0.1% naphthylethylene diamine dihydrochloride in 10% H3PO4). Hydrocortisone was used as positive control. RAW264.7 cells were treated by lipopolysaccharides (LPS, 1 μg/mL) with or without samples (1–9, 1–30 μM) for 24 h, then briefly centrifuged. 100 μL of the cell culture supernatant were mixed with 100 μL of Griess reagent, followed by incubation for 10 min at room temperature. The absorbance at 540 nm was measured and the inhibitory rates were calculated by using a standard calibration curve prepared from different concentrations of sodium nitrite.

C[C@]12CCC(=O)C=C1CC[C@@H]1[C@@H]2[C@@H](O)C[C@@]2(C)[C@H]1CC[C@]2(O)C(=O)CO [Hydrocortisone]
pIC50 [1]: 4.07 | pIC50 [2]: 4.19 | pIC50 [3]: 4.19
